From PubChem BioAssay (NCI)
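96-well plates; 48 h exposure; 5 concentrations. Endpoints by linear interpolation between flanking doses. Not reached: highest tested concentration assigned. Here, GI50 denotes the concentration required for 50% inhibition of growth. At the TGI there is no net growth.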

Columns and labels:
Assay in all cases: inhibition of tumour cell growth, NCI panel, 48 h
CCRF-CEM leukemia = test system: CCRF-CEM leukemia
SR leukemia = test system: SR leukemia
U251 CNS = test system: U251 CNS
SF-295 CNS = test system: SF-295 CNS
OVCAR-8 ovarian = test system: OVCAR-8 ovarian
HOP-92 NSCLC = test system: HOP-92 NSCLC
COLO 205 colon = test system: COLO 205 colon
UACC-257 melanoma = test system: UACC-257 melanoma
ACHN renal = test system: ACHN renal
HT29 colon = test system: HT29 colon

| Compound | TGI (CCRF-CEM leukemia) | TGI (SR leukemia) | TGI (U251 CNS) | TGI (SF-295 CNS) | TGI (OVCAR-8 ovarian) | TGI (HOP-92 NSCLC) | TGI (COLO 205 colon) | TGI (UACC-257 melanoma) | TGI (ACHN renal) | TGI (HT29 colon) | GI50 (CCRF-CEM leukemia) | GI50 (SR leukemia) | GI50 (U251 CNS) | GI50 (SF-295 CNS) | GI50 (OVCAR-8 ovarian) | GI50 (HOP-92 NSCLC) | GI50 (COLO 205 colon) | GI50 (UACC-257 melanoma) | GI50 (ACHN renal) | GI50 (HT29 colon) |
| --- | --- | --- | --- | --- | --- | --- | --- | --- | --- | --- | --- | --- | --- | --- | --- | --- | --- | --- | --- | --- |
| Cc1ccc(C(=O)c2nnc(C(=O)c3ccc(C)cc3)nn2)cc1 | 50.8 µM | 37.6 µM | > 100 µM | > 100 µM | > 100 µM | > 100 µM | > 100 µM | > 100 µM | > 100 µM | > 100 µM |  |  |  |  |  |  |  |  |  |  |
| COc1ccc2c(c1)cn1c3ccc(O)cc3nc(N)c21 | > 50.9 µM | 2.76 µM | 4.11 µM | 4 µM | 4.92 µM | > 37 µM | 4.68 µM | 1 µM | 5.18 µM | 4.31 µM | 0.163 µM | 0.0743 µM | 0.0547 µM | 0.203 µM | 0.375 µM | 1.06 µM | 0.885 µM | 0.0793 µM | 0.109 µM | 1.45 µM |
| Cc1ccc(NC(=O)C(=O)C(C#N)c2ccccc2C)cc1C (stereo unspecified) | > 100 µM | > 100 µM | > 100 µM | > 100 µM | > 100 µM | > 100 µM | > 67.3 µM | > 100 µM | > 100 µM | > 100 µM |  |  |  |  |  |  |  |  |  |  |
| C=CCOc1cccc(/C=C2\SC(=Nc3ccc(O)cc3)NC2=O)c1 | > 100 µM | > 63.7 µM | 12.9 µM | 16.6 µM | 14 µM | 6.54 µM | 11.1 µM | > 100 µM | 13.7 µM | 29.6 µM | 0.402 µM | 0.108 µM | 0.495 µM | 0.505 µM | 0.813 µM | 0.863 µM | 2.64 µM | 9.11 µM | 0.777 µM | 3.54 µM |
| C[C@@H]1C[C@H]2CC[C@H](O2)[C@H](C)C(=O)O[C@@H](C)C[C@@H]2CC[C@@H](O2)[C@@H](C)C(=O)O[C@H](C)C[C@H]2CC[C@H](O2)[C@H](C)C(=O)O[C@@H](C)C[C@@H]2CC[C@@H](O2)[C@@H](C)C(=O)O1 | 16.2 µM | > 42.8 µM | > 100 µM | 0.659 µM | > 44.6 µM | 0.524 µM | 0.33 µM | 0.806 µM | 2.45 µM | 15.7 µM |  |  |  |  |  |  |  |  |  |  |
| N#C/C(=C\c1ccc(O)c(O)c1)C(N)=S | > 55.3 µM | > 100 µM | > 100 µM | > 100 µM | > 100 µM | > 100 µM | > 100 µM | 97.7 µM | > 100 µM | > 100 µM |  |  |  |  |  |  |  |  |  |  |
| COc1cccc2c1c(C(=O)C(=O)Nc1cc(C)no1)cn2Cc1ccc(F)cc1 | > 100 µM | > 100 µM | > 100 µM | > 100 µM | > 100 µM | > 66 µM | 53 µM | 71.8 µM | > 100 µM | > 100 µM | 6.24 µM | 0.573 µM | 4.78 µM | 6.26 µM | 25.2 µM | 14.2 µM | 13.8 µM | 9.25 µM | 15.4 µM | 3.32 µM |
| O=[N+]([O-])C1C2C=CC(C2)[C@H]1c1ccco1 (stereo partly specified) | > 100 µM | > 100 µM | > 100 µM | > 100 µM | > 100 µM | 18.4 µM | > 100 µM | > 100 µM | > 100 µM | 9.22 µM |  |  |  |  |  |  |  |  |  |  |
| CCOC(=O)c1cc(NS(=O)(=O)c2ccccc2)cc(C(=O)OCC)c1 | > 100 µM | > 100 µM | > 100 µM | > 100 µM |  | > 100 µM | > 100 µM | > 100 µM | > 100 µM | > 100 µM | > 100 µM | > 100 µM | > 100 µM | > 100 µM |  | > 100 µM | > 100 µM | > 100 µM | > 100 µM | > 100 µM |
| COc1ccc(-c2csc(N(C(=O)N3CCN(c4cc5c(cc4F)c(=O)c(C(=O)O)cn5C4CC4)CC3)c3ccccc3)n2)cc1 | > 100 µM | > 100 µM | > 34.3 µM | 8.61 µM | > 100 µM | 2.14 µM | 9.22 µM | 6.71 µM | 5.09 µM | 46.2 µM | 3.06 µM | 2.78 µM | 0.973 µM | 2.49 µM | 2.82 µM | 0.597 µM | 3 µM | 2.35 µM | 1.85 µM | 3.62 µM |
| COC(=O)[C@@]1(C)CC[C@]2(C)CC[C@]3(C)C4=CC=C5C(=CC(=O)C(O)=C5C)[C@]4(C)[C@@H](O)C[C@@]3(C)[C@@H]2C1 | 11.9 µM | 19 µM | 18.7 µM | 28.4 µM | 28.4 µM | 23.2 µM | 22.2 µM | 24.3 µM | 13.4 µM | 23.1 µM | 2.73 µM | 2.69 µM | 8.71 µM | 13.2 µM | 14.8 µM | 11.6 µM | 7.36 µM | 10.1 µM | 3.8 µM | 10.8 µM |
| NCCn1c(=O)[nH]c(=O)[nH]c1=S | > 100 µM | > 100 µM | > 100 µM | > 100 µM | > 100 µM | > 100 µM | > 100 µM | > 100 µM | > 100 µM | > 100 µM | > 100 µM | > 100 µM | > 100 µM | > 100 µM | > 100 µM | > 100 µM | > 100 µM | > 100 µM | > 100 µM | > 100 µM |
| CC(C)[C@H]1CO[C@]2(C)[C@@H]3CN(Cc4ccccc4)C[C@@H]3C(=O)N12 | > 100 µM | > 100 µM | > 100 µM | > 100 µM | > 100 µM | > 100 µM | > 100 µM | > 100 µM | > 100 µM | > 100 µM |  |  |  |  |  |  |  |  |  |  |
| COc1cc(/C=C/c2cc(O)c3cc(C(C)=O)c(=O)oc3c2)cc2c1O[C@]1(C)CC[C@@H](O)C(C)(C)[C@H]1C2 | > 29.4 µM | > 100 µM | > 81.4 µM |  | > 95.1 µM | > 28.5 µM | > 59.8 µM | > 30.5 µM | > 74 µM | > 62.2 µM |  |  |  |  | > 28.2 µM |  | > 27.5 µM |  | > 22.9 µM | > 24.9 µM |
| COc1ccc(OC)c(/C=C2\SC(=S)NC2=O)c1 | > 100 µM | > 100 µM | > 100 µM | > 100 µM | > 100 µM | 55.4 µM | > 100 µM | 61.5 µM | 95.1 µM | > 100 µM | 42.4 µM | 37.6 µM | 41 µM | 42.8 µM | 30.5 µM | 16 µM | 48.3 µM | 19.8 µM | 26.7 µM | 42.1 µM |
| Cc1cc(N(CCCl)CCCl)ccc1C=Nc1ccc(-c2csc(Cc3ccccc3)n2)cc1 | > 86.3 µM | 73.2 µM | 37.6 µM | 50.6 µM | 46.2 µM | 12.3 µM | 34.1 µM | 29.3 µM | > 91.3 µM | 47.2 µM | 3.01 µM | 1.07 µM | 7.82 µM | 1.65 µM | 10.2 µM | 1.53 µM | 13.1 µM | 3.36 µM | 5.35 µM | 17.3 µM |
| COc1cc(OC(C)=O)cc2c(OC(C)=O)ccc(OC(C)=O)c12 | > 100 µM | > 100 µM | > 100 µM | > 100 µM | > 100 µM | 46.7 µM |  | > 100 µM | > 100 µM | > 100 µM |  |  |  |  |  |  |  |  |  |  |
| OC(c1cc(-c2ccccc2)nc2ccc(Cl)cc12)C1CCCCN1 (stereo unspecified) | 7.69 µM | 5.44 µM |  | 3.55 µM | 6.38 µM | 6.87 µM |  | 4.13 µM | 3.21 µM | 6.57 µM | 2.59 µM | 1.88 µM |  | 1.9 µM | 2.55 µM | 2.02 µM |  | 2.23 µM | 1.64 µM | 2.96 µM |
| CCCNC1=C(C(=O)OCC)C(=O)CO1 | > 100 µM | > 100 µM | > 100 µM | > 100 µM | > 100 µM | > 100 µM |  | > 100 µM | > 100 µM | > 100 µM |  |  |  |  |  |  |  |  |  |  |
| COc1ccc(-c2ccc(/C=N/n3c(COc4ccc(Cl)cc4Cl)nn(CN4CCOCC4)c3=S)o2)c([N+](=O)[O-])c1 | 43.8 µM | 68.4 µM |  | 46.9 µM |  | 27.6 µM | > 100 µM |  | > 100 µM | > 100 µM | 16.2 µM | 27.7 µM |  | 17.4 µM |  | 0.829 µM | 30.8 µM |  | 36.1 µM | 42 µM |
| CC(CCC(=O)O)[C@H]1CCC2[C@@H]3CC[C@@H]4CC(O)CC[C@]4(C)C3CC[C@@]21C (stereo partly specified) | 85.3 µM | 85.4 µM | > 100 µM |  | > 100 µM | 87.9 µM | 53.1 µM | > 100 µM | > 100 µM | > 100 µM | 21.9 µM | 23.4 µM | 40.2 µM |  | 50 µM | 28 µM | 23.7 µM | 27.7 µM | 29.3 µM | 46.1 µM |
| CC(=O)OCC1OC(OC2C(CSC3OC(COC(C)=O)C(OC(C)=O)C(OC(C)=O)C3OC(C)=O)OC(OC(C)=O)C(OC(C)=O)C2OC(C)=O)C(OC(C)=O)C(OC(C)=O)C1OC(C)=O (stereo unspecified) | > 100 µM | > 100 µM | > 100 µM | > 100 µM | > 100 µM | > 100 µM | > 100 µM |  | > 100 µM | > 100 µM |  |  |  |  |  |  |  |  |  |  |
